Values of other authors as cited in patent US20160081915A1, “TRANSDERMAL FORMULATIONS OF FLUTICASONE” (STRATEGIC SCIENCE & TECHNOLOGIES, LLC, priority 2013, published 2016).

Conditions: oral; extensive first-pass metabolism in the liver

half-life when delivered orally: about 7.8 hours
Compound: C[C@@H]1C[C@H]2[C@@H]3C[C@H](F)C4=CC(=O)C=C[C@]4(C)[C@@]3(F)[C@@H](O)C[C@]2(C)[C@@]1(O)C(=O)SCF [fluticasone]
